Assay results published in BindingDB's records for doi:10.1021/cb200305u (Harvard Medical School, 2012).

Assays:
Test in all cases: In Vitro Kinase Assay
Aurora kinase A = target: T1, Aurora kinase A (Homo sapiens, UniProt O14965)
T1 sequence (O14965 whole entry): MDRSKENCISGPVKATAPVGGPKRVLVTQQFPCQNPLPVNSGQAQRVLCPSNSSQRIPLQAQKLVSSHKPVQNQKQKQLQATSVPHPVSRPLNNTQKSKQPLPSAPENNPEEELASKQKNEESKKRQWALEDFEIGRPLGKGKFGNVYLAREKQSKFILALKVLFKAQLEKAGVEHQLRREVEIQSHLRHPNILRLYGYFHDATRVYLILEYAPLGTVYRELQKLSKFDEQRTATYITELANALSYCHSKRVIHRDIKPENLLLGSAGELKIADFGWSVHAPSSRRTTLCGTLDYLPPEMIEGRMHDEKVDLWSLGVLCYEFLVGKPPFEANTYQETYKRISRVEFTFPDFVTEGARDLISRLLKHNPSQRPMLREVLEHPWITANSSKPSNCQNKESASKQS
Source text: (§1) In vitro kinase assay of Aurora A, B, and C using Z-LYTE technology (Invitrogen) and ATP at Km apparent for each kinase.

Aurora kinase B = Aurora kinase B (Homo sapiens, UniProt Q96GD4)
Sequence of Aurora kinase B (Q96GD4 whole entry): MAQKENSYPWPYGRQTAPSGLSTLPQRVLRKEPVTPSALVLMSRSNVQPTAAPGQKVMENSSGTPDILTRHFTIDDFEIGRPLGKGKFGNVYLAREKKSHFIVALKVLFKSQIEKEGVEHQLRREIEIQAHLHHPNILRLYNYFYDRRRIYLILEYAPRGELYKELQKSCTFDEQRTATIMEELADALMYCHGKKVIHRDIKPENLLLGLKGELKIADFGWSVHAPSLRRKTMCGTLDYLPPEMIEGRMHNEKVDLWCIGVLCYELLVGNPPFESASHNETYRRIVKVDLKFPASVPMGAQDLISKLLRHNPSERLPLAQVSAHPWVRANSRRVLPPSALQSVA
Source text: as §1

Aurora kinase C = target: T2, Aurora kinase C (Homo sapiens, UniProt Q9UQB9)
T2 sequence (Q9UQB9 whole entry): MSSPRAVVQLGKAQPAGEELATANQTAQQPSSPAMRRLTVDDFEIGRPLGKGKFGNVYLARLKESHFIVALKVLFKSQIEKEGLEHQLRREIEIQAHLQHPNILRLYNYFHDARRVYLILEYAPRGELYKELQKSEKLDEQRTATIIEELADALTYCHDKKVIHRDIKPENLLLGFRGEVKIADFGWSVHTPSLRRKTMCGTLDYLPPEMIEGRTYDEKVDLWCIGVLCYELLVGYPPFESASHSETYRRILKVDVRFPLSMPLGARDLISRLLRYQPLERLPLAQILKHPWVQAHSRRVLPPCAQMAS
Source text: as §1

CN1CCN(c2ccc(Nc3ncc4c(n3)N(C)c3ccccc3C(=O)N4C)cc2)CC1 [Benzo[e]pyrimido[5,4-b][1,4]diazepin-6(11H)-one, 3]
IC50 (Aurora kinase A): 7.2 nM
IC50 (Aurora kinase B): 25.9 nM
IC50 (Aurora kinase C): 40.5 nM

CN1C(=O)c2ccccc2N(C)c2nc(Nc3ccc(OCc4ccccn4)c(Cl)c3)ncc21 [Benzo[e]pyrimido[5,4-b][1,4]diazepin-6(11H)-one, 14]
IC50 (Aurora kinase A): 53.2 nM
IC50 (Aurora kinase B): 417 nM

CCN(CCCOc1ccc2c(Nc3cc(CC(=O)Nc4cccc(F)c4)n[nH]3)ncnc2c1)CCOP(=O)(O)O
IC50 (Aurora kinase C): 25.3 nM

Cc1cc(Nc2ncc3c(n2)N(C)c2ccccc2C(=O)N3C)ccc1C(=O)N1CCN(C)CC1 [Benzo[e]pyrimido[5,4-b][1,4]diazepin-6(11H)-one, 21]
IC50 (Aurora kinase A): 3.7 nM
IC50 (Aurora kinase B): 14.5 nM

CN1C(=O)c2ccccc2N(C)c2nc(Nc3ccc(N4CCC(O)CC4)cc3)ncc21 [Benzo[e]pyrimido[5,4-b][1,4]diazepin-6(11H)-one, 1]
IC50 (Aurora kinase A): 5.6 nM
IC50 (Aurora kinase C): 24.6 nM

CN1C(=O)c2ccccc2N(C)c2nc(Nc3ccc(OCc4cccc(Cl)c4)cc3)ncc21 [Benzo[e]pyrimido[5,4-b][1,4]diazepin-6(11H)-one, 11]
IC50 (Aurora kinase A): 83.9 nM
IC50 (Aurora kinase B): 352 nM

COc1cc(Nc2ncc3c(n2)N(C)c2ccccc2C(=O)N3C)ccc1C(=O)N1CCN(O)CC1 [Benzo[e]pyrimido[5,4-b][1,4]diazepin-6(11H)-one, 22]
IC50 (Aurora kinase A): 2.6 nM
IC50 (Aurora kinase B): 24.2 nM

CCN1CCN(C(=O)c2ccc(Nc3ncc4c(n3)N(C)c3ccccc3C(=O)N4C)cc2)CC1 [Benzo[e]pyrimido[5,4-b][1,4]diazepin-6(11H)-one, 7]
IC50 (Aurora kinase A): 5.9 nM
IC50 (Aurora kinase B): 15.2 nM

CN1CCN(C(=O)c2cccc(Nc3ncc4c(n3)N(C)c3ccccc3C(=O)N4C)c2)CC1 [Benzo[e]pyrimido[5,4-b][1,4]diazepin-6(11H)-one, 15]
IC50 (Aurora kinase A): 14.9 nM
IC50 (Aurora kinase B): 36.7 nM

CC1CCN(S(=O)(=O)c2ccc(Nc3ncc4c(n3)N(C)c3ccccc3C(=O)N4C)cc2)CC1 [Benzo[e]pyrimido[5,4-b][1,4]diazepin-6(11H)-one, 5]
IC50 (Aurora kinase A): 16.8 nM
IC50 (Aurora kinase B): 45.1 nM

CN1C(=O)c2ccccc2N(C)c2nc(Nc3ccc(C(=O)N4CCC(O)CC4)c(Cl)c3)ncc21 [Benzo[e]pyrimido[5,4-b][1,4]diazepin-6(11H)-one, 20]
IC50 (Aurora kinase A): 3.2 nM
IC50 (Aurora kinase B): 14.3 nM

CN1C(=O)c2ccccc2N(C)c2nc(Nc3ccc(C(=O)N4CCC(O)CC4)c(C(F)(F)F)c3)ncc21 [Benzo[e]pyrimido[5,4-b][1,4]diazepin-6(11H)-one, 19]
IC50 (Aurora kinase A): 5.1 nM
IC50 (Aurora kinase B): 43.7 nM

CN1C(=O)c2ccccc2N(C)c2nc(Nc3ccc(OCc4cccc(F)c4)cc3)ncc21 [Benzo[e]pyrimido[5,4-b][1,4]diazepin-6(11H)-one, 10]
IC50 (Aurora kinase A): 323 nM
IC50 (Aurora kinase B): 512 nM

CN1CCN(c2cccc(Nc3ncc4c(n3)N(C)c3ccccc3C(=O)N4C)c2)CC1 [Benzo[e]pyrimido[5,4-b][1,4]diazepin-6(11H)-one, 17]
IC50 (Aurora kinase A): 11.9 nM
IC50 (Aurora kinase B): 55.8 nM

CN1CCN(c2ccc(Nc3ncc4c(n3)N(C)c3ccccc3C(=O)N4C)cc2C(F)(F)F)CC1 [Benzo[e]pyrimido[5,4-b][1,4]diazepin-6(11H)-one, 13]
IC50 (Aurora kinase A): 86.8 nM
IC50 (Aurora kinase B): 774 nM

CCN1CCN(C(=O)Cc2ccc(Nc3ncc(F)c(Nc4ccc(C(=O)Nc5ccccc5Cl)cc4)n3)cc2)CC1 [Aurora Inhibitor, 35]
IC50 (Aurora kinase A): 3.2 nM
IC50 (Aurora kinase B): 1380 nM
IC50 (Aurora kinase C): 432 nM

CCN1CCN(Cc2ccc(Nc3ncc4c(n3)N(C)c3cc(C)ccc3C(=O)N4C)cc2C(F)(F)F)CC1 [Benzo[e]pyrimido[5,4-b][1,4]diazepin-6(11H)-one, 30]
IC50 (Aurora kinase A): 146 nM
IC50 (Aurora kinase B): 230 nM

CN1C(=O)c2ccccc2N(C)c2nc(Nc3ccc(S(=O)(=O)N4CCC(O)CC4)cc3)ncc21 [Benzo[e]pyrimido[5,4-b][1,4]diazepin-6(11H)-one, 4]
IC50 (Aurora kinase A): 8.8 nM
IC50 (Aurora kinase B): 28.6 nM

CCN1CCN(Cc2ccc(Nc3ncc4c(n3)N(C)c3cc(F)ccc3C(=O)N4C)cc2C(F)(F)F)CC1 [Benzo[e]pyrimido[5,4-b][1,4]diazepin-6(11H)-one, 31]
IC50 (Aurora kinase A): 298 nM
IC50 (Aurora kinase B): 586 nM

CN1CCN(C(=O)c2ccc(Nc3ncc4c(n3)N(C)c3ccccc3C(=O)N4C)cc2C(F)(F)F)CC1 [Benzo[e]pyrimido[5,4-b][1,4]diazepin-6(11H)-one, 12]
IC50 (Aurora kinase A): 9 nM
IC50 (Aurora kinase B): 84.8 nM

CCN1CCN(Cc2ccc(Nc3ncc4c(n3)N(C)c3c(C)cccc3C(=O)N4C)cc2C(F)(F)F)CC1 [Benzo[e]pyrimido[5,4-b][1,4]diazepin-6(11H)-one, 28]
IC50 (Aurora kinase A): 11.6 nM
IC50 (Aurora kinase B): 132 nM

CCN1CCN(Cc2ccc(Nc3ncc4c(n3)N(C)c3c(F)cccc3C(=O)N4C)cc2C(F)(F)F)CC1 [Benzo[e]pyrimido[5,4-b][1,4]diazepin-6(11H)-one, 29]
IC50 (Aurora kinase A): 13.4 nM
IC50 (Aurora kinase B): 487 nM
IC50 (Aurora kinase C): 595 nM

CN1C(=O)c2ccccc2N(C)c2nc(Nc3ccc(S(N)(=O)=O)cc3)ncc21
IC50 (Aurora kinase A): 3.4 nM
IC50 (Aurora kinase B): 8.4 nM

CN1C(=O)c2ccccc2N(C)c2nc(Nc3ccc(OCc4ccccn4)cc3)ncc21 [Benzo[e]pyrimido[5,4-b][1,4]diazepin-6(11H)-one, 9]
IC50 (Aurora kinase A): 18.4 nM
IC50 (Aurora kinase B): 39.3 nM

CN1CCN(Cc2cccc(Nc3ncc4c(n3)N(C)c3ccccc3C(=O)N4C)c2)CC1 [Benzo[e]pyrimido[5,4-b][1,4]diazepin-6(11H)-one, 16]
IC50 (Aurora kinase A): 10.7 nM
IC50 (Aurora kinase B): 19.8 nM

CN1c2ccccc2C(=O)Nc2cnc(Nc3ccc(N4CCC(O)CC4)cc3)nc21 [Benzo[e]pyrimido[5,4-b][1,4]diazepin-6(11H)-one, 18]
IC50 (Aurora kinase A): 98.5 nM
IC50 (Aurora kinase B): 216 nM

CCN1CCN(C(=O)Cc2ccc(Nc3ncc4c(n3)N(C)c3ccccc3C(=O)N4C)cc2)CC1 [Benzo[e]pyrimido[5,4-b][1,4]diazepin-6(11H)-one, 8]
IC50 (Aurora kinase A): 6.1 nM
IC50 (Aurora kinase B): 18.7 nM
